Test results as given in publication PMC10049354, “Anti-Inflammatory Effects and Photo- and Neuro-Protective Properties of BIO203, a New Amide Conjugate of Norbixin, in Development for the Treatment of Age-Related Macular Degeneration (AMD)” (International Journal of Molecular Sciences, 2023).

What was measured:
[1] = test system: albino rats exposed to blue-light-induced photoreceptor degeneration; assay: Blue-light damage (BLD) study in albino rats: ERG; assay type: in vivo, rat; settings: 50 mg/kg, four IP administrations; positive controls
Procedure: The ERG in rats was performed using the electrophysiological system RETI-animal® from Roland Consult. ERG was recorded on both eyes from overnight dark-adapted animals. Rats were anesthetized by an intramuscular injection of a mix of Rompun® (xylazine)/Imalgene® (ketamine) before ERG measurement. Ten to fifteen minutes before measurement, one drop of Mydriaticum® (0.5% tropicamide) was instilled for pupillary dilatation. The A-wave and B-wave implicit times (ms) and amplitudes (µV) were measured for each ERG. The B-wave amplitude (value and %) was given as informative data. ERG parameters: Ganzfeld Q450C, Color: white maximum, Maximum intensity: 3 cd/m^2 (0 dB); Duration 0.24 ms; number of flashes: 1, Filter: 50 Hz, Impedance threshold: 50 kΩ. For scotopic ERGs, the A-wave amplitudes were measured from the baseline to the peak of the negative potential, whereas B-wave amplitudes were measured from the trough of the A-wave to the peak of the positive potential. The recordings obtained from these analyses were tabulated and normalized (%) for each eye. Group means, standard deviation, and median values were calculated, considering each eye from one animal as a separate value. ERG recordings in mice were performed as previously described.
(§1) Sixty-four animals were selected based on good health and on scotopic electroretinogram performed before induction when the A-wave amplitude of both eyes was in the range of the global mean (all animals) of A-wave amplitude ± 1.96 SD. Animals were then randomized into the study groups using a macro function in Excel® software based on the A-wave amplitude of both eyes (mean value). On Day 0, BIO203, negative controls, and comparator (N-tert-Butyl-a-phenylnitrone (PBN)) were intraperitoneally injected using a 25 G needle in rats that have been dark-adapted for 36 h. Individually housed rats were then exposed for 6 h (±5 min) to a continuous blue, fluorescent light (400–540 nm) in clear plastic cages. After exposure and administration, the rats were placed in a dark room for 24 h (±1 h) and then were returned to rearing cyclic light conditions.

[2] = test system: albino rats exposed to blue-light-induced photoreceptor degeneration; assay: Blue-light damage (BLD) study in albino rats: retinal histology (photoreceptor layers); assay type: in vivo, rat; settings: 50 mg/kg, four IP administrations; 6 h blue-light exposure; p < 0.0001
Procedure: At the end of the measurement period on Day 7, rats were euthanized by an intraperitoneal injection of pentobarbital. Immediately after euthanasia, both eyeballs were sampled, fixed in Davidson’s solution, and processed for histology. Sections (5 to 7 µm thick) were performed along the vertical meridian and stained with Haematoxylin/Eosin stain. The vertical meridian included the optic nerve. […] The thickness of the outer nuclear layer was measured on each point. […] Histology and photoreceptor counting in mice were performed as previously described.
as §1

[3] = test system: primary porcine RPE cells; assay: RPE phototoxicity: photoprotection of RPE cells exposed to A2E and blue light; assay type: cell-based, pig; settings: all concentrations from 10 to 20 μM; A2E 30 μM + blue light
Procedure: RPE cells were obtained from pig eyes, as previously described. RPE cells were seeded on a 96-well plate at a density of 1.5 × 10^5 cells/cm^2 in DMEM 2% FCS. BIO201, BIO203, or its pure enantiomers were added in increasing concentrations to the culture medium 48 h before illumination. A2E was added to the medium at a final concentration of 30 μM, and 19 h later, blue-light illumination was performed for 50 min using a 96 blue-led device (Durand, St Clair de la Tour, France) emitting at 470 nm (1440 mcd, 8.6 mA). Just before illumination, the culture medium was replaced by a modified DMEM without any photosensitizer and with 2% FCS. Twenty-four hours after blue-light irradiation, all cell nuclei were stained with Hoechst 33342, and nuclei of dead cells with ethidium homodimer 2, fixed with paraformaldehyde (4% in PBS, 10 min) and 9 pictures per well were captured using a fluorescence microscope (Nikon TiE) equipped with a CoolSNAP HQ2 camera and driven by Metamorph Premier On-Line program. Quantification of live cells was performed using Metamorph Premier Off-Line and a homemade program by subtraction of dead cells from all cells. For cytokines mRNA analysis, RPE cells were seeded in 24-well plates and left untreated or treated with A2E or BIO203 alone or A2E plus BIO203. After 48 h, cells were lysed using the lysis buffer from the NucleoSpin® RNA kit, and the samples were stored at −80 °C.

Row | SMILES | effect on visual function (ERG A-wave and B-wave) [1] | preservation of retinal structure (photoreceptor layers) [2] | protective activity compared with BIO203 (racemate) [3]
1 | CC(C)(C)[N+]([O-])=Cc1ccccc1 [PBN, N-tert-Butyl-a-phenylnitrone, reference compound] | protected the visual functions | partially preserved the retinal structure | –
2 | CO[C@@H]1CCCN(C(=O)/C=C/C(C)=C/C=C/C(C)=C/C=C/C=C(C)/C=C/C=C(C)\C=C\C(=O)O)C1 [BIO203-R] | – | – | same protective activity as BIO203
3 | CO[C@H]1CCCN(C(=O)/C=C/C(C)=C/C=C/C(C)=C/C=C/C=C(C)/C=C/C=C(C)\C=C\C(=O)O)C1 [BIO203-S] | – | – | same protective activity as BIO203
